Results on 1 compound are retold here after patent publication US8871681B2, “Herbicidal compositions comprising 4-amino-3-chloro-5-fluoro-6-(4-chloro-2-fluoro-3-methoxyphenyl) pyridine-2-carboxylic acid or a derivative thereof and certain sulfonylureas” (Dow AgroSciences LLC, priority 2012, dated 2014).

The subject of experiment [1] is POROL (Portulaca oleracea, portulaca). In words: Post-emergence herbicidal activity of mixtures in forage crops, greenhouse (Example IV). It counts as in vivo, Portulaca oleracea L. As to conditions: Table 58 (forage), foliar-applied, after approximately 21 days. As for the experimental part: Seeds or root cuttings of the desired test plant species were planted in Sun Gro MetroMix® 306 planting mixture, which typically has a pH of 6.0 to 6.8 and an organic matter content of about 30 percent, in plastic pots with a surface area of 126.6 square centimeters (cm^2). When required to ensure good germination and healthy plants, a fungicide treatment and/or other chemical or physical treatment was applied. The plants were grown for 14-60 days in a greenhouse with an approximate 14 hour photoperiod which was maintained at approximately 28° C. during the day and 24° C. during the night. Nutrients and water were added on a regular basis and supplemental lighting was provided with overhead metal halide 1000-Watt lamps as necessary. The plants were employed for testing when they reached the BBCH13 to BBCH23 leaf stage.
Treatments consisted of the benzyl ester of 4-amino-3-chloro-5-fluoro-6-(4-chloro-2-fluoro-3-methoxy-phenyl)pyridine-2-carboxylic acid (Compound A), formulated as a SC, and a second herbicide alone and in combination.
A measured aliquot of Compound A was placed in 25 milliliter (mL) glass vial and diluted in a volume of 1.25% (v/v) Agri-dex crop oil concentrated to obtain stock solutions. Compound requirements are based upon a 12 mL application volume at a rate of 187 liters per hectare (L/ha). Spray solutions of the second cereal herbicide and experimental compound mixtures were prepared by adding the stock solutions to the appropriate amount of dilution solution to form 12 mL spray solution with active ingredients in two- and three-way combinations. […]
The treated plants and control plants were placed in a greenhouse as described above and watered by sub-irrigation to prevent wash-off of the test compounds. After approximately 21 days, the condition of the test plants, as compared with that of the control plants, was determined visually and scored on a scale of 0 to 100 percent where 0 corresponds to no injury and 100 corresponds to complete kill. […]

Experiment [2] deals with SETFA (Setaria faberi, giant foxtail). In words: Pre-emergence soil-applied weed control, greenhouse (Example V). It counts as in vivo, Setaria faberi Herrm. As to conditions: Table 59 (pre-emergence). From the text: Seeds or nutlets of the desired test plant species were planted in a soil matrix prepared by mixing a loam soil (32 percent silt, 23 percent clay, and 45 percent sand, with a pH of about 6.5 and an organic matter content of about 1.9 percent) and calcareous grit in an 80 to 20 ratio. The soil matrix was contained in plastic pots with a volume of 1 quart and a surface area of 83.6 square centimeters (cm^2).
Treatments consisted of the benzyl ester of 4-amino-3-chloro-5-fluoro-6-(4-chloro-2-fluoro-3-methoxy-phenyl)pyridine-2-carboxylic acid (compound A) formulated as an SC (suspension concentrate) and various herbicidal components alone and in combination. Forms of compound A were applied on an acid equivalent basis.
Other herbicidal components were applied on an acid equivalent or active ingredient basis and included the acetolactate synthase (ALS)-inhibiting herbicide, flazasulfuron, formulated as Katana®.
Treatment requirements were calculated based upon the rates being tested, the concentration of active ingredient or acid equivalent in the formulation, and a 12 mL application volume at a rate of 187 L/ha.
For treatments comprised of formulated compounds, measured amounts of compounds were placed individually in 25 mL glass vials and diluted in a volume of 1.25% (v/v) Agri-Dex® crop oil concentrate (COC) to obtain 12× stock solutions. […] Application solutions were prepared by adding an appropriate amount of each stock solution (e.g., 1 mL) and diluted to the appropriate final concentrations with the addition of 10 mL of an aqueous mixture of 1.25% (v/v) COC so that the final spray solutions contained 1.25% (v/v) COC. […]
The treated and control pots were placed in a greenhouse and top watered as needed. […] After approximately 4 weeks, the condition of the test plants as compared with that of the untreated plants was determined visually and scored on a scale of 0 to 100 percent where 0 corresponds to no injury or growth inhibition and 100 corresponds to complete kill. […]

In the case of `COc1c(Cl)ccc(-c2nc(C(=O)OCc3ccccc3)c(Cl)c(N)c2F)c1F` [Compound A Benzyl Ester], the entries for the “Weed Control POROL Obs” value in experiment [1] (2.2 gai/ha alone) and in experiment [1] (4.4 gai/ha alone) were 47% and 60%, respectively. The “Visual Weed Control (%) - 27 DAA SETFA Obs” value in experiment [2] (16 gae/ha alone) is 8%; in experiment [2] (32 gae/ha alone), 15%.
